What was measured:
[1] = system: MCF7 breast, NCI-H460 microcitoma and SF-268 SNC; experiment: NCI preliminary tests on three cell lines, mean GI50; format: cell-based, human; details: mean concentration causing 50% inhibition of cell growth; N.A. = inactive in preliminary tests on three cell lines
Procedure: (§1) Biological assays were carried out at the National Cancer Institute according to known experimental protocols [(a) Monks A., Scudiero D., Skehan P., Shoemaker R., Paull K., Vistica D., Hose C., Langley J., Cronise P., Vaigro-Wolff A., Gray-Goodrich M., Campbell H., Mayo J., Boyd M., J. Natl. Cancer Inst., 83, 757-766 (1991). (b) Paull K. D., Shoemaker R. H., Hods L., Monks A., Scudiero D. A., Rubinstein L., Plowman J., Boyd M. R., J. Natl. Cancer Inst., 81, 1088-1092 (1989). (c) Boyd M. R., Paull K. D., Rubinstein L. R., Cytotoxic Anticancer Drugs: Models and Concept for Drug discovery, Valeriote F. A., Corbett T., Baker L., Eds., Kluwer Academic Publishers: Amsterdam, 1992, pp. 11].
Table 1 reports the GI50, namely the mean concentration (μM) of substance which causes a 50% inhibition on the cell growth in preliminary tests carried out on three cell lines (MCF7 breast, NCI-H460 microcitoma and SF-268 SNC).

Leukemia = experiment: NCI GI50 on tumor cells, leukemia; format: cell-based, human; details: Leukemia cell lines; NA = inactive products
Procedure: as §1

Microcitoma = experiment: NCI GI50 on tumor cells, microcitoma; format: cell-based, human; details: Microcitoma cell lines; NA = inactive products
Procedure: as §1

Colon = experiment: NCI GI50 on tumor cells, colon; format: cell-based, human; details: Colon cell lines; NA = inactive products
Procedure: as §1

SNC = experiment: NCI GI50 on tumor cells, SNC; format: cell-based, human; details: SNC cell lines; NA = inactive products
Procedure: as §1

Melanoma = experiment: NCI GI50 on tumor cells, melanoma; format: cell-based, human; details: Melanoma cell lines; NA = inactive products
Procedure: as §1

Ovary = experiment: NCI GI50 on tumor cells, ovary; format: cell-based, human; details: Ovary cell lines; NA = inactive products
Procedure: as §1

Kidney = experiment: NCI GI50 on tumor cells, kidney; format: cell-based, human; details: Kidney cell lines; NA = inactive products
Procedure: as §1

Prostate = experiment: NCI GI50 on tumor cells, prostate; format: cell-based, human; details: Prostate cell lines; NA = inactive products
Procedure: as §1

Breast = experiment: NCI GI50 on tumor cells, breast; format: cell-based, human; details: Breast cell lines; NA = inactive products
Procedure: as §1

[2] = system: 60 human tumor cell lines; experiment: NCI primary screening on 60 human tumor cell lines, mean over various tumor cells; format: cell-based; details: for antiproliferative activity: in words, in both cases (three-cell-line preliminary tests and various tumor cells); for GI50 Mean: mean over the tumor cell panels, NA = inactive products
Procedure: The cytotoxic activity of compounds (I) was evidenced in primary screening studies on 60 human tumor cell lines.
as §1

Row | SMILES | GI50 μM) Mean [1] [µM] | GI50 (Leukemia) [µM] | GI50 (Microcitoma) [µM] | GI50 (Colon) [µM] | GI50 (SNC) [µM] | GI50 (Melanoma) [µM] | GI50 (Ovary) [µM] | GI50 (Kidney) [µM] | GI50 (Prostate) [µM] | GI50 (Breast) [µM] | antiproliferative activity [2] | GI50 Mean [2] [µM]
1 | c1ccc(-c2nnc(-c3c[nH]c4c3ccc3ccccc34)o2)cc1 [Il, 3-[[1,3,4]oxadiazole-5′-phenyl-2′-yl]-1H-benzo[g]indole] | 1.28 | 0.64 | 2.36 | 0.7 | 1.21 | 2.71 | 1.7 | 2.04 | 1.28 | 0.6 | significant antiproliferative activity | 1.28
2 | c1ccc2c(c1)Cc1c(-c3nnco3)c[nH]c1-2 [Ia, 3-[[1,3,4]Oxadiazol-2′-yl]-1,4-dihydro-indeno[1,2-b]pyrrole] | 74.1 | 79.7 | 57.8 | 81.2 | 86.7 | 77.3 | 81.2 | 67.3 |  | 73.2 |  | 74.1
3 | Cc1nnc(-c2c[nH]c3c2Cc2ccccc2-3)o1 [Ib, 3-[[1,3,4]oxadiazole-5′-methyl-2′-yl]-1,4-dihydro-indeno[1,2-b]pyrrole] | 75.8 | 81.3 | 93.3 |  | 75.8 | 79.4 | 30.2 | 91.2 |  | 77.6 |  | 75.8
4 | c1ccc2c(c1)CCc1c(-c3nnco3)c[nH]c1-2 [Ie, 3-[[1,3,4]oxadiazol-2′-yl]-4,5-dihydro-1H-benzo[g]indole] | 26.6 | 26.3 | 21.8 | 25.7 | 28.2 | 28.8 | 28.2 | 27.5 | 32.3 | 27.5 |  | 26.3
5 | Cn1cc(-c2nnco2)c2ccc3ccccc3c21 [Im, 1-methyl-3-[[1,3,4]oxadiazol-2′-yl]-1H-benzo[g]indole] | 33.1 | 54.9 | 17.7 | 38.9 | 23.9 | 43.6 | 41.6 | 20.8 | 54.9 | 44.6 |  | 33.1
6 | c1ccc2c(c1)ccc1c(-c3nnco3)c[nH]c12 [Ih, 3-[[1,3,4]oxadiazol-2′-yl]-1H-benzo[g]indole] | 35.4 | 44.6 | 22.3 | 33.8 | 32.3 | 33.8 | 38.9 | 38 | 62.3 | 40 |  | 35.4
7 | c1ccc(-c2nnc(-c3c[nH]c4c3Cc3ccccc3-4)o2)cc1 [Ic, 3-[[1,3,4]oxadiazole-5′-phenyl-2′-yl]-1,4-dihydro-indeno[1,2-b]pyrrole] | 2.9 | 1.82 | 3.39 | 1 | 2.95 | 2.34 | 4.57 | 6.31 | 4.78 | 3.16 | significant antiproliferative activity | 2.9

— patent US20070173535A1, “Oxadiazoles having antiproliferative activity” (priority 2002, published 2007)
